Experimental data as given in the supplement of paper PMC11061612.

Legend:
Assay in all cases: Bliss excess, mean over the matrix (fraction); higher = more synergy
[1] = test system: AM-38 (Glioblastoma)
In short: (§1)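 Bliss excess equals the observed combination effect minus the expected value EA + EB − EA·EB, where EA and EB are the effects of each agent alone. Combination Emax is the second-highest inhibition within the matrix. Inhibition was scaled from CellTiter-Glo 2.0 luminescence, with 0 set by vehicle wells and 1 by blank wells, after 72 hours of two-drug dosing of cells plated in 1536-well plates.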

[2] = test system: BHT-101 (Thyroid Gland Carcinoma)
In short: as §1

[3] = test system: BxPC-3 (Pancreatic Carcinoma)
In short: as §1

[4] = test system: IA-LM (Non-Small Cell Lung Carcinoma)
In short: as §1

[5] = test system: IST-MEL1 (Melanoma)
In short: as §1

[6] = test system: KP-4 (Pancreatic Carcinoma)
In short: as §1

[7] = test system: MDA-MB-415 (Breast Carcinoma)
In short: as §1

[8] = test system: MONO-MAC-6 (Acute Myeloid Leukemia)
In short: as §1

[9] = test system: NAMALWA (Burkitt's Lymphoma)
In short: as §1

[10] = test system: NCI-H2373 (Mesothelioma)
In short: as §1

[11] = test system: PL4 (Pancreatic Carcinoma)
In short: as §1

[12] = test system: Raji (Burkitt's Lymphoma)
In short: as §1

[13] = test system: SCC-4 (Oral Cavity Carcinoma)
In short: as §1

[14] = test system: SK-CO-1 (Colorectal Carcinoma)
In short: as §1

[15] = test system: SNU-423 (Hepatocellular Carcinoma)
In short: as §1

[16] = test system: SUP-M2 (T-Cell Non-Hodgkin's Lymphoma)
In short: as §1

[17] = test system: SiHa (Cervical Carcinoma)
In short: as §1

[18] = test system: T84 (Colorectal Carcinoma)
In short: as §1

[19] = test system: WM35 (Melanoma)
In short: as §1

[20] = test system: ZR-75-30 (Breast Carcinoma)
In short: as §1

SMILES	Bliss excess [1]	Bliss excess [2]	Bliss excess [3]	Bliss excess [4]	Bliss excess [5]	Bliss excess [6]	Bliss excess [7]	Bliss excess [8]	Bliss excess [9]	Bliss excess [10]	Bliss excess [11]	Bliss excess [12]	Bliss excess [13]	Bliss excess [14]	Bliss excess [15]	Bliss excess [16]	Bliss excess [17]	Bliss excess [18]	Bliss excess [19]	Bliss excess [20]
CN(CCO)CC[C@H](CSc1ccccc1)Nc1ccc(S(=O)(=O)NC(=O)c2ccc(N3CCC([C@@H](O)c4ccccc4-c4ccc(Cl)cc4)CC3)cc2)cc1S(=O)(=O)C(F)(F)F [AZD4320] + C=CCn1c(=O)c2cnc(Nc3ccc(N4CCN(C)CC4)cc3)nc2n1-c1cccc(C(C)(C)O)n1 [AZD1775] (first compound max 1 µM, partner max 1 µM)	0.0931	0.0142	0.0575	0.0161	0.0339	-0.0187	-0.0034	0.117	-0.0219	-0.0089	-0.0586	-0.0028	0.0838	-0.0412	-0.0129	0.0681	-0.0358	-0.0408	-0.0178	-0.0083
CN(CCO)CC[C@H](CSc1ccccc1)Nc1ccc(S(=O)(=O)NC(=O)c2ccc(N3CCC([C@@H](O)c4ccccc4-c4ccc(Cl)cc4)CC3)cc2)cc1S(=O)(=O)C(F)(F)F [AZD4320] + CCN(CCO)CCCOc1ccc2c(Nc3cc(CC(=O)Nc4cccc(F)c4)[nH]n3)ncnc2c1 [AZD2811] (first compound max 1 µM, 7x7, partner max 1 µM)	0.0616	-0.0112	-0.0001	0.0119	0.0445	-0.021	0.0756	0.145	0.0873	-0.0366	0.0251	0.0111	0.0936	0.0178	-0.0325	0.0503	-0.0219	-0.0305	-0.0084	-0.0024
CN(CCO)CC[C@H](CSc1ccccc1)Nc1ccc(S(=O)(=O)NC(=O)c2ccc(N3CCC([C@@H](O)c4ccccc4-c4ccc(Cl)cc4)CC3)cc2)cc1S(=O)(=O)C(F)(F)F [AZD4320] + CN(C)CCCOc1ccc(-c2ccc3ncc4c(c3c2)n(C2CCOCC2)c(=O)n4C)cn1 [AZD0156] (first compound max 1 µM, 7x7, partner max 1 µM)	0.112	-0.0193	-0.0239	-0.0239	-0.0151	-0.0604	-0.114	0.0324	0.0125	-0.0545	0.0463	0.0041	-0.0341	-0.0758	-0.0727	0.0491	-0.0537	-0.0243	-0.0141	-0.038
